Read-outs that look alike come from different tables or passages of the source.
Experiments:
[1] = test system: polymorphonuclear leukocytes; conditions: in response to a stimulator of chemotaxis; cited from earlier work
cerebral blood flow = conditions: in vivo; cited from earlier work
PUMP-1 = PUMP-1 activity induced by 100 U/ml of IL-1; type: cell-based; conditions: IL-1 100 U/ml
Excerpt: Metalloproteases mediate tissue damage such as glomerular diseases of the kidney, joint destruction in arthritis, and lung destruction in emphysema, and play a role in tumor metastases. Three examples of metalloproteases include a 92 kD type V gelatinase induced by TNF, IL-1 and PDGF plus βFGF, a 72 kD type IV collagenase that is usually constitutive and induced by TNF or IL-1, and a stromelysin/PUMP-1 induced by TNF and IL-1. The inventive compounds can inhibit TNF or IL-1 induction of the 92 kD type V gelatinase inducable metalloprotease. Moreover, the inventive compounds can reduce PUMP-1 activity induced by 100 U/ml of IL-1. […] Accordingly, the inventive compounds prevent induction of certain metalloproteases induced by IL-1 or TNF and are not involved with constitutively produced proteases (e.g., 72 kD type IV collagenase) involved in normal tissue remodeling.

[2] = test system: generation of DAG and PA in ras-transformed NIH/3T3 cells; experiment: Serum-stimulated generation of DAG and PA in ras-transformed NIH/3T3 cells; type: cell-based; conditions: pretreatment of cells
Excerpt: For example, activating ras mutations result in increased generation of DAG on stimulation with mitogens, although the sources of DAG have differed between experimental systems. In nontransformed renal mesangial cells, IL-1 β stimulation increased PLA2 and LPAAT activation, resulting in generation of sn-2 unsaturated PA and subsequent hydrolysis to DAG by phosphatidate phosphohydrolase. The ras transformation in NIH/3T3 cells upregulates serum-stimulated generation of DAG and PA. The specific species of DAG that is stimulated by serum is dioleoyl and for PA are dilinoleoyl and dioleoyl. […] The inhibition occurs either through suppressing the generation of PA de novo from lysoPA, or through inhibition of one or both arms of the Lands cycle. […] Therefore, the ras transformation mediates an upregulation of PA through indirect stimulation of PLA2 and/or LPAAT activity.

LPAAT = experiment: Formation of remodeled PA through the PA/DAG pathway (in vitro); type: cell-based; conditions: high PTX concentrations
Excerpt: Even in the presence of PTX, cells continue to form PA through the action of PLD, and DAG is also formed through the action of phospholipase C on PC and PI. The latter pathway is not inhibited by the inventive compounds or PTX. In PTX-treated cells, DAG derived from remodeled and PLA-generated PA is diminished (e.g., 1,2-sn-dioleoyl DAG, 1-alkyl,2-linoleoyl DAG and 1-alkyl,2-docosahexaneolyl DAG). Therefore, the inventive compounds and PTX inhibit the formation of only a certain species of PA and DAG by selectively inhibiting a specific second messenger pathway that is only activated in cells by noxious stimuli, but is not used to signal normal cellular housekeeping functions.

[3] = test system: ras-transformed NIH/3T3 cells
[4] = test system: tumor necrosis factor (TNF); conditions: cited from earlier work

Compound | chemotaxis stimulation [1] | cerebral blood flow (cerebral blood flow) | PUMP-1 activity, % of control levels (PUMP-1) | inhibition of DAG/PA generation [2] | inhibition of formation of remodeled PA (LPAAT) | cytotoxicity in ras-transformed cells [3] | inhibition of ras-transformed cells ([3]; vs parental cells) | TNF levels ([4]; normal volunteers) | TNF levels ([4]; with GM-CSF, patients undergoing allogeneic bone marrow transplant)
CC(O)CCCCn1c(=O)c2c(ncn2C)n(C)c1=O (stereo not shown) [M1, 1-(5-hydroxyhexyl)-3,7-dimethylxanthine] | stimulate chemotaxis in polymorphonuclear leukocytes | increasing cerebral blood flow |  |  |  |  |  |  | 
CC(=O)CCCCn1c(=O)c2c(ncn2C)n(C)c1=O [PTX, 1-(5-oxohexyl)-3,7-dimethylxanthine] | stimulate chemotaxis in polymorphonuclear leukocytes |  | 95% | blocks generation of these phospholipid second messengers | blocks formation of remodeled PA through the PA/DAG pathway at high PTX concentrations | not associated with significant cytotoxicity | inhibits ras-transformed NIH/3T3 cells more than parental cells | TNF levels were higher among PTX recipients | decrease tumor necrosis factor (TNF) levels
